Active and inactive are the calls of the source. The calls are words filed in the database; no cut-off is given here.
How the values were obtained:
[1] = test system: Hs-578T; test: Cytotoxicity against human Hs-578T cells assessed as reduction in cell proliferation at IC50 measured after 24 hrs by BrdU incorporation assay relative to control; assay type: functional; design: scale not given: the % may be the effect or the level left
[2] = Toxicity in wild type C57BL/6J mouse assessed as effect on body curvature at 10 to 50 mg/kg, ip administered daily for 7 days and measured daily; assay type: organism-based; settings: in vivo, 168 h, dose 10-50 mg/kg, time 7 day
[3] = Toxicity in wild type C57BL/6J mouse assessed as mean water intake per day at 10 to 50 mg/kg, ip administered daily for 7 days; assay type: organism-based; settings: in vivo, 168 h, dose 10-50 mg/kg, time 7 day
[4] = Toxicity in wild type Caenorhabditis elegans N2 assessed as effect on food consumption at 0.0001 to 50 uM measured daily for 7 days by food clearance assay; settings: 168 h, dose 0.0001-50 µM, time 7 day
[5] = test system: Hs-578T; test: Cytotoxicity against human Hs-578T cells assessed as inhibition of cell growth incubated for 72 hrs by SRB assay; assay type: functional, cell-based
[6] = Cytotoxicity against human MCF-10A cells assessed as inhibition of cell growth incubated for 72 hrs by SRB assay; assay type: toxicity, cell-based
[7] = Toxicity in wild type C57BL/6J mouse assessed as transfer to reaction at 10 to 50 mg/kg, ip administered daily for 7 days and measured daily; assay type: organism-based; settings: in vivo, 168 h, dose 10-50 mg/kg, time 7 day
[8] = Toxicity in wild type Caenorhabditis elegans N2 assessed as drug tolerance at 0.0001 to 50 uM; settings: dose 0.0001-50 µM
[9] = test system: Hs-578T; test: Induction of apoptosis in human Hs-578T cells assessed as reduction in viable cells at IC50 measured after 24 to 48 hrs by Annexin V-FITC/PI staining based flow cytometry analysis; assay type: functional, cell-based; settings: time 24-48 hrs
[10] = Toxicity in wild type C57BL/6J mouse assessed as effect on respiratory rate at 10 to 50 mg/kg, ip administered daily for 7 days and measured daily; assay type: organism-based; settings: in vivo, 168 h, dose 10-50 mg/kg, time 7 day
[11] = species on record: Homo sapiens; test: Selectivity index, ratio of IC50 for human MCF-10A cells to IC50 for human Hs-578T cells
[12] = Toxicity in wild type C57BL/6J mouse assessed as effect on bolus fecalis count at 10 to 50 mg/kg, ip administered daily for 7 days and measured daily; assay type: organism-based; settings: in vivo, 168 h, dose 10-50 mg/kg, time 7 day
[13] = Toxicity in wild type C57BL/6J mouse assessed as reduction in body weight at 10 to 50 mg/kg, ip administered daily for 7 days; assay type: organism-based; settings: in vivo, 168 h, dose 10-50 mg/kg, time 7 day
[14] = test system: Hs-578T; test: Induction of cell cycle arrest in human Hs-578T cells assessed as accumulation of cells at S phase at IC50 measured after 24 hrs by RNase/PI staining based flow cytometry analysis; assay type: functional
[15] = Toxicity in wild type C57BL/6J mouse assessed as effect on grooming at 10 to 50 mg/kg, ip administered daily for 7 days and measured daily; assay type: organism-based; settings: in vivo, 168 h, dose 10-50 mg/kg, time 7 day

For `Brc1ccc2c(c1)-c1cc(-c3ccccc3)nc3c1C(N=CN3c1ccccc1)O2` (stereo not given), the Activity [1] was roughly 30%, the Activity [2] was “Non-Toxic” and the Activity [3] was ~ 4 ml. For the same compound, the Activity [4] was “Non-Toxic”, the IC50 [5] was 8.63 µM and the IC50 at 72 h [6] was 36.8 µM. For the same compound, the Activity [7] was “Non-Toxic”, the Activity [8] was “Non-Toxic” and the Activity [9] was “Active”. The Activity [10] was “Non-Toxic”, the Ratio IC50 [11] was 3.26 and the Activity [12] was “Non-Toxic”. The Activity [13] was “Non-Toxic”, the Activity [14] was “inactive” and the Activity [15] was “Non-Toxic”.
